In ChEMBL document CHEMBL6177964 (Eur J Med Chem, 2025):
Activity calls are given as the source filed them. The calls are words filed in the database; no cut-off is given here. Residues, ends and D or L forms follow the SMILES beside them.

Experiments:
[1] = molecular target: T1, Angiotensin-converting enzyme (Homo sapiens, UniProt P12821); experiment: Binding affinity to ACE (unknown origin)
[2] = molecular target: T1, Angiotensin-converting enzyme; experiment: Inhibition of ACE (unknown origin) preincubated with compound for 5 mins and measured after 60 mins
[3] = molecular target: T1, Angiotensin-converting enzyme; experiment: Binding affinity to ACE (unknown origin) assessed as change in enthalpy at 800 to 1400 nM by isothermal titration calorimetric analysis; settings: dose 800-1400 nM
Rattus norvegicus [4] = experiment: Effect on spontaneously hypertensive male Wistar Kyoto rat assessed as reduction in serum ACE activity by measuring hippuric acid level at 5 mg/kg administered via gavage for 4 weeks and measured at 22 hrs post dose by RP-HPLC analysis; format: functional, organism-based
Rattus norvegicus [5] = organism: Rattus norvegicus; experiment: Prevention of gut microbiota dysbiosis in spontaneously hypertensive male Wistar Kyoto rat model assessed as fold increase in rikenellaceae abundance; format: functional
Rattus norvegicus [6] = organism: Rattus norvegicus; experiment: Prevention of gut microbiota dysbiosis in spontaneously hypertensive male Wistar Kyoto rat model assessed as fold increase in turicibacter abundance; format: functional
Rattus norvegicus [7] = organism: Rattus norvegicus; experiment: Prevention of gut microbiota dysbiosis in spontaneously hypertensive male Wistar Kyoto rat model assessed as decrease in parabacteroides abundance relative to control; format: functional; parameters: scale not given: the % may be the effect or the level left
Rattus norvegicus [8] = experiment: Antihypertensive activity in spontaneously […] male Wistar Kyoto rat assessed as increase in fecal butyric acid level at 5 mg/kg administered via gavage for 4 weeks and measured at 22 hrs post dose by RP-HPLC analysis relative to control; format: functional
Rattus norvegicus [9] = organism: Rattus norvegicus; experiment: Prevention of gut microbiota dysbiosis in spontaneously hypertensive male Wistar Kyoto rat model assessed as increase in enterobacteriaceae abundance relative to control; format: functional
[10] = molecular target: T1, Angiotensin-converting enzyme; experiment: Binding affinity to ACE (unknown origin) assessed as dissociation constant by isothermal titration calorimetric analysis
[11] = molecular target: T1, Angiotensin-converting enzyme; experiment: Binding affinity to ACE (unknown origin) assessed as change in Gibbs free energy at 800 to 1400 nM by isothermal titration calorimetric analysis; settings: dose 800-1400 nM
Rattus norvegicus [12] = experiment: Subacute antihypertensive activity in spontaneously hypertensive male Wistar Kyoto rat assessed as reduction in diastolic blood pressure at 5 mg/kg administered via gavage and measured after 1 week by tail-artery manometry; format: functional, organism-based; settings: time 1.0 weeks
Rattus norvegicus [13] = organism: Rattus norvegicus; experiment: Prevention of gut microbiota dysbiosis in spontaneously hypertensive male Wistar Kyoto rat model assessed as fold increase in roseburia abundance; format: functional
Rattus norvegicus [14] = experiment: Subacute antihypertensive activity in spontaneously hypertensive male Wistar Kyoto rat assessed as reduction in systolic blood pressure at 5 mg/kg administered via gavage and measured after 1 week by tail-artery manometry; format: functional, organism-based; settings: time 1.0 weeks
Rattus norvegicus [15] = organism: Rattus norvegicus; experiment: Prevention of gut microbiota dysbiosis in spontaneously hypertensive male Wistar Kyoto rat model assessed as decrease in epsilonbacteraeota abundance; format: functional, organism-based
[16] = molecular target: T1, Angiotensin-converting enzyme; experiment: Binding affinity to ACE (unknown origin) assessed as change in entropy (-TdeltaS) at 800 to 1400 nM by isothermal titration calorimetric analysis; settings: dose 800-1400 nM
[17] = molecular target: T1, Angiotensin-converting enzyme; experiment: Binding affinity to ACE (unknown origin) assessed as change in entropy (deltaS) at 800 to 1400 nM by isothermal titration calorimetric analysis; settings: dose 800-1400 nM
Rattus norvegicus [18] = organism: Rattus norvegicus; experiment: Prevention of gut microbiota dysbiosis in spontaneously hypertensive male Wistar Kyoto rat model assessed as increase in shannon indices; format: functional, organism-based
Rattus norvegicus [19] = organism: Rattus norvegicus; experiment: Prevention of gut microbiota dysbiosis in spontaneously hypertensive male Wistar Kyoto rat model assessed as increase in bacteroidetes abundance; format: functional, organism-based
Rattus norvegicus [20] = organism: Rattus norvegicus; experiment: Prevention of gut microbiota dysbiosis in spontaneously hypertensive male Wistar Kyoto rat model assessed as decrease in streptococcus abundance relative to control; format: functional; parameters: scale not given: the % may be the effect or the level left
Rattus norvegicus [21] = organism: Rattus norvegicus; experiment: Prevention of gut microbiota dysbiosis in spontaneously hypertensive male Wistar Kyoto rat model assessed as fold increase in ruminococcaceae UCG-014 abundance; format: functional
Rattus norvegicus [22] = organism: Rattus norvegicus; experiment: Prevention of gut microbiota dysbiosis in spontaneously hypertensive male Wistar Kyoto rat model assessed as increase in simpson indices; format: functional, organism-based
Rattus norvegicus [23] = organism: Rattus norvegicus; experiment: Prevention of gut microbiota dysbiosis in spontaneously hypertensive male Wistar Kyoto rat model assessed as fold increase in oscillibacter abundance; format: functional
Rattus norvegicus [24] = experiment: Acute antihypertensive activity in spontaneously hypertensive male Wistar Kyoto rat assessed as reduction in systolic blood pressure at 2.5 mg/kg administered via gavage measured after 4 hrs by tail-artery manometry; format: functional
Rattus norvegicus [25] = organism: Rattus norvegicus; experiment: Prevention of gut microbiota dysbiosis in spontaneously hypertensive male Wistar Kyoto rat model assessed as fold increase in lachnospiraceae abundance; format: functional
Rattus norvegicus [26] = experiment: Subacute antihypertensive activity in spontaneously hypertensive male Wistar Kyoto rat assessed as reduction in systolic blood pressure at 5 mg/kg administered via gavage for 4 weeks and measured at 22 hrs post dose by tail-artery manometry; format: functional
Rattus norvegicus [27] = experiment: Subacute antihypertensive activity in spontaneously hypertensive male Wistar Kyoto rat assessed as reduction in diastolic blood pressure at 5 mg/kg administered via gavage for 4 weeks and measured at 22 hrs post dose by tail-artery manometry; format: functional
Rattus norvegicus [28] = experiment: Effect on spontaneously hypertensive male Wistar Kyoto rat assessed as reduction in Ang II level in serum at 5 mg/kg administered via gavage for 4 weeks and measured at 22 hrs post dose by ELISA; format: functional, organism-based
Rattus norvegicus [29] = organism: Rattus norvegicus; experiment: Prevention of gut microbiota dysbiosis in spontaneously hypertensive male Wistar Kyoto rat model assessed as fold increase in ruminococcaceae abundance; format: functional
Rattus norvegicus [30] = experiment: Antihypertensive activity in spontaneously […] male Wistar Kyoto rat assessed as increase in fecal acetic acid level at 5 mg/kg administered via gavage for 4 weeks and measured at 22 hrs post dose by RP-HPLC analysis relative to control; format: functional
Rattus norvegicus [31] = experiment: Acute antihypertensive activity in spontaneously hypertensive male Wistar Kyoto rat assessed as reduction in diastolic blood pressure at 2.5 mg/kg administered via gavage measured after 6 hrs by tail-artery manometry; format: functional
Rattus norvegicus [32] = experiment: Antihypertensive activity in spontaneously […] male Wistar Kyoto rat assessed as increase in fecal propionic acid level at 5 mg/kg administered via gavage for 4 weeks and measured at 22 hrs post dose by RP-HPLC analysis relative to control; format: functional
[33] = molecular target: T1, Angiotensin-converting enzyme; experiment: Binding affinity to ACE (unknown origin) measured at 20 mins
Rattus norvegicus [34] = experiment: Antihypertensive activity in spontaneously hypertensive male rat assessed as reduction in systolic blood pressure at 5 mg/kg, IG measured after 24 hrs by tail-cuff method; format: functional
Rattus norvegicus [35] = experiment: Antihypertensive activity in spontaneously hypertensive male rat assessed as reduction in diastolic blood pressure at 5 mg/kg, IG measured after 24 hrs by tail-cuff method; format: functional
Rattus norvegicus [36] = experiment: Effect on spontaneously hypertensive male Wistar Kyoto rat assessed as reduction in serum ACE activity by measuring hippuric acid level at 2.5 mg/kg administered via gavage for 4 weeks by RP-HPLC analysis; format: functional, organism-based
Rattus norvegicus [37] = experiment: Subacute antihypertensive activity in spontaneously hypertensive male Wistar Kyoto rat assessed as reduction in systolic blood pressure at 2.5 mg/kg administered via gavage for 4 weeks and measured at 22 hrs post dose by tail-artery manometry; format: functional
Rattus norvegicus [38] = experiment: Acute antihypertensive activity in spontaneously hypertensive male Wistar Kyoto rat assessed as reduction in systolic blood pressure at 5 mg/kg administered via gavage measured after 2 hrs by tail-artery manometry; format: functional
Rattus norvegicus [39] = organism: Rattus norvegicus; experiment: Prevention of gut microbiota dysbiosis in spontaneously hypertensive male Wistar Kyoto rat model assessed as increase in roseburia abundance; format: functional, organism-based
Rattus norvegicus [40] = experiment: Effect on spontaneously hypertensive male Wistar Kyoto rat assessed as reduction in Ang II level in serum at 2.5 mg/kg administered via gavage for 4 weeks by ELISA; format: functional, organism-based
[41] = molecular target: T1, Angiotensin-converting enzyme; experiment: Binding affinity to ACE (unknown origin) measured within 14 mins
Rattus norvegicus [42] = experiment: Subacute antihypertensive activity in spontaneously hypertensive male Wistar Kyoto rat assessed as reduction in diastolic blood pressure at 2.5 mg/kg administered via gavage for 4 weeks and measured at 22 hrs post dose by tail-artery manometry; format: functional
Rattus norvegicus [43] = experiment: Acute antihypertensive activity in spontaneously hypertensive male Wistar Kyoto rat assessed as reduction in diastolic blood pressure at 5 mg/kg administered via gavage measured after 2 hrs by tail-artery manometry; format: functional
[44] = molecular target: T1, Angiotensin-converting enzyme; experiment: Inhibition of ACE (unknown origin)

T1 sequence (P12821 whole entry): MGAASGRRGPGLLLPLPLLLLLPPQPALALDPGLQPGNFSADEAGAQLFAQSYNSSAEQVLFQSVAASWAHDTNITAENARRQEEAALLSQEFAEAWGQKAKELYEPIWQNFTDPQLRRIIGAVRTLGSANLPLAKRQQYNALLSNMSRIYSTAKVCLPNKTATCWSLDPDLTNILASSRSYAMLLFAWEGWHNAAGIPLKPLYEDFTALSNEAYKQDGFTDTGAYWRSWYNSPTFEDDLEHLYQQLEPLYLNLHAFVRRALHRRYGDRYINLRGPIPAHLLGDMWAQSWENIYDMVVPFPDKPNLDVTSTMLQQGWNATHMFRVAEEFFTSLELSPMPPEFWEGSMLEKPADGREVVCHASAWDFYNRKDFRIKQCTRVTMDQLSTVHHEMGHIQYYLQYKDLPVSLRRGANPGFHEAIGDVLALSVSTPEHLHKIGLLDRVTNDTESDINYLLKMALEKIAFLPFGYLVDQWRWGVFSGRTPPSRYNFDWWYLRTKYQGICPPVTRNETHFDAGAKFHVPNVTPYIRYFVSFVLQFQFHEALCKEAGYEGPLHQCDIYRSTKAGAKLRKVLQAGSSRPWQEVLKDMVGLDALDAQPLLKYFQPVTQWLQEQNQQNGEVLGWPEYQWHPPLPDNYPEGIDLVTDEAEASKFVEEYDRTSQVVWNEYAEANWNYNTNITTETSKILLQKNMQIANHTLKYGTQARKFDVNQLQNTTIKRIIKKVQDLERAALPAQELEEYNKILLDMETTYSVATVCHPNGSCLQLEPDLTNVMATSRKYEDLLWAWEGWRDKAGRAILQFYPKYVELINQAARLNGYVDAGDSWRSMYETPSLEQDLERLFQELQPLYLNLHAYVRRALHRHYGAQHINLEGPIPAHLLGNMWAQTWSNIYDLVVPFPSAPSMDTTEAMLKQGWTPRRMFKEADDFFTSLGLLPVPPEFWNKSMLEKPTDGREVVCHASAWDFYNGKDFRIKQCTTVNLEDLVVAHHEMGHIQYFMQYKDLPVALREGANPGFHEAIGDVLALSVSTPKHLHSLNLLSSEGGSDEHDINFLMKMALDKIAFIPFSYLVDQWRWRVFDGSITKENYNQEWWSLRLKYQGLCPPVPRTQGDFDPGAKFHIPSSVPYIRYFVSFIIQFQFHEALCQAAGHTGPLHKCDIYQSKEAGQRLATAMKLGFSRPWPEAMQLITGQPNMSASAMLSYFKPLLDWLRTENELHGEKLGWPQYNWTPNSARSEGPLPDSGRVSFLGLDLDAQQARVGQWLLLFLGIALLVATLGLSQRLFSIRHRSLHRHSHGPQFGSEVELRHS

## CC(C)C[C@H](N)C(=O)N[C@@H](C)C(=O)N1CCC[C@H]1C(=O)N[C@@H](Cc1ccc(O)cc1)C(=O)N[C@@H](Cc1c[nH]c2ccccc12)C(=O)O (H-LAPYW-OH)
[1]
  IC50: 5.42 µM

## CC(C)C[C@H](NC(=O)CNC(=O)[C@H](CCC(=O)O)NC(=O)[C@@H]1CCCN1C(=O)[C@@H](N)C(C)C)C(=O)N[C@@H](CC(N)=O)C(=O)N[C@@H](CO)C(=O)N[C@@H](Cc1c[nH]c2ccccc12)C(=O)N1CCC[C@H]1C(=O)N[C@@H](Cc1ccccc1)C(=O)O (H-VPEGLNSWPF-OH)
[2]
  IC50: 73.3 µM

## C[C@H](NC(=O)[C@@H](N)CCCCN)C(=O)N[C@@H](CCCCN)C(=O)N[C@@H](Cc1c[nH]c2ccccc12)C(=O)O (H-KAKW-OH)
[3]
  deltaH: -8.31 kcal/mol
Rattus norvegicus [4]
  Activity: Active
Rattus norvegicus [5]
  fold change (FC): 4.4
Rattus norvegicus [6]
  fold change (FC): 2.3
Rattus norvegicus [7]
  Activity: 44%
Rattus norvegicus [8]
  Activity: 45%
Rattus norvegicus [9]
  Activity: 85%
[10]
  Kd: 0.0577 µM
[11]
  deltaG: -9.88 kcal/mol
Rattus norvegicus [12]
  Activity: Active
Rattus norvegicus [13]
  fold change (FC): 2
Rattus norvegicus [14]
  Activity: Active
Rattus norvegicus [15]
  Activity: Active
[16]
  -TdeltaS: -1.57 kcal/mol
[17]
  deltaS: 5.28 cal/mol.K
Rattus norvegicus [18]
  Activity: Active
Rattus norvegicus [19]
  Activity: Active
Rattus norvegicus [20]
  Activity: 43%
Rattus norvegicus [21]
  fold change (FC): 1.8
Rattus norvegicus [22]
  Activity: Active
Rattus norvegicus [23]
  fold change (FC): 2.6
Rattus norvegicus [24]
  Activity: 20 mmHg
Rattus norvegicus [25]
  fold change (FC): 1.5
Rattus norvegicus [26]
  Activity: 11 mmHg
Rattus norvegicus [27]
  Activity: 12 mmHg
Rattus norvegicus [28]
  Activity: Active
Rattus norvegicus [29]
  fold change (FC): 4.4
Rattus norvegicus [30]
  Activity: 28%
Rattus norvegicus [31]
  Activity: 18 mmHg
[2]
  IC50: 2.02 µM
Rattus norvegicus [32]
  Activity: 105%
[33]
  Activity: Active

## C[C@H](NC(=O)[C@@H](N)CCCCN)C(=O)N[C@@H](CCCCN)C(=O)N1CCC[C@H]1C(=O)O (H-KAKP-OH)
[3]
  deltaH: -1.84 kcal/mol
[10]
  Kd: 0.141 µM
[11]
  deltaG: -9.35 kcal/mol
[16]
  -TdeltaS: -7.51 kcal/mol
[17]
  deltaS: 25.2 cal/mol.K
[2]
  IC50: 7.23 µM
[33]
  Activity: Active

## CC(C)C[C@H](NC(=O)[C@H](CCCCN)NC(=O)[C@H](C)NC(=O)[C@@H](N)CCCCN)C(=O)O (H-KAKL-OH)
[2]
  IC50: 2620 µM

## CC(C)C[C@H](NC(=O)[C@H](CO)NC(=O)[C@@H](NC(=O)CNC(=O)CNC(=O)[C@H](Cc1ccc(O)cc1)NC(=O)CNC(=O)[C@@H](N)CCCCN)C(C)C)C(=O)N1CCC[C@H]1C(=O)N[C@@H](CCC(=O)O)C(=O)N[C@@H](Cc1c[nH]c2ccccc12)C(=O)O (H-KGYGGVSLPEW-OH)
Rattus norvegicus [34]
  Activity: 20 mmHg
Rattus norvegicus [35]
  Activity: 27 mmHg

## NCCCC[C@H](N[C@@H](CCc1ccccc1)C(=O)O)C(=O)N1CCC[C@H]1C(=O)O [LISINOPRIL ANHYDROUS]
[3]
  deltaH: -3.21 kcal/mol
Rattus norvegicus [8]
  Activity: inactive
Rattus norvegicus [9]
  Activity: 76%
Rattus norvegicus [36]
  Activity: Active
Rattus norvegicus [15]
  Activity: Active
Rattus norvegicus [37]
  Activity: 39 mmHg
Rattus norvegicus [38]
  Activity: 33 mmHg
[16]
  -TdeltaS: -7.21 kcal/mol
Rattus norvegicus [39]
  Activity: inactive
Rattus norvegicus [40]
  Activity: Active
[17]
  deltaS: 24.2 cal/mol.K
Rattus norvegicus [19]
  Activity: Active
[41]
  Activity: Active
Rattus norvegicus [30]
  Activity: inactive
Rattus norvegicus [42]
  Activity: 32 mmHg
Rattus norvegicus [43]
  Activity: 28 mmHg
Rattus norvegicus [32]
  Activity: inactive

## C[C@H](NC(=O)[C@@H](N)CCCCN)C(=O)N1CCC[C@H]1C(=O)N[C@@H](CCCCN)C(=O)O (H-KAPK-OH)
[2]
  IC50: 1450 µM

## CC(C)C[C@H](NC(=O)[C@H](Cc1c[nH]c2ccccc12)NC(=O)[C@@H](N)CCCCN)C(=O)N1CCC[C@H]1C(=O)O (H-KWLP-OH)
[44]
  IC50: 5 µM
